According to patent publication US20120213826A1, “Use of Pro-Inflammatory Compounds for Promoting Bone Formation” (Imperial Innovations Limited, priority 2009, published 2012):
Entries after “also recorded” stand apart in the source; their conditions may differ.

Columns and labels:
[1] = system: muscle-derived stromal cells (MDSC); experiment: MDSC migration through a transwell membrane; assay type: cell-based, human
Procedure: Migration of 1×10^4 MDSC through an 8 μm pore transwell membrane over 36 hours, in response to fracture supernatant with the addition of AbTNF-α, AbIL-6 and AbIL-1β. The IgG^1 immunoglobulin was used as the antibody control. B: Migration in response to rhTNF-α, rhIL-6 and rhIL-1β in human serum-containing media. Results represent change in cell number, expressed as a percentage of the supernatant, or media only control. Each experiment was performed 3 times (n=3) using 3 fracture supernatants (in A). Results represent mean of 3 experiments ±SEM. *: P<0.05; **: P<0.01; ***: P<0.001; 1-way ANOVA with Bonferroni's multiple comparison test.
MDSC must be recruited to the fracture site from adjacent muscle. Next we assessed the efficacy of the pro-inflammatory cytokines in attracting MDSC in vitro using a transwell assay. 1×10^4 MDSC were seeded onto a 8 μm transwell membrane in serum free media. Next day, the transwell membrane was added to a well containing 10% human serum-containing media +IL-1β, IL6 and TNFα at the end concentrations shown. At 24 hrs the membrane was cleared of any cells on the seeded side, fixed and stained. IL-1β appeared not promote MDSC chemotaxis.
500 μl serum free media was added to each well of a 24 well plate. 8 μm pore transwell membranes (VWR International Ltd) were then added to the wells. 1×10^4 MDSC in serum free media were added to the upper chamber of each transwell membrane. At 12 hours the serum-free media was replaced with test or control media or supernatant and incubated at 37° C. for 36 hours. The upper chambers were then cleared of cells and cell debris using a cotton bud, in sweeping motions. The membrane was then washed and fixed using 10% neutral buffered formalin for 1 hour. After washing, the membrane was then added to a 1% crystal violet solution for 1 hour. After further washing, the membranes were viewed under light microscopy at 20 times magnification, using an Olympus CKX41 microscope with a QICAM camera, (QIMAGING, GT vision LLC). The number of cells present on the underside of the transwell membrane in any random field was counted 3 times and the mean calculated. Cell migration was calculated against the supernatant or human serum-containing (control) media and the number expressed as a percentage relative to the control media.

[2] = system: murine open tibial fracture; experiment: Murine open tibial fracture model, periosteally stripped (histology, CT scans); assay type: in vivo, C57BI/6 mice
[3] = system: osteoclast; conditions: TNF-α at 1 ng/ml; cited from earlier work

Substance: TNFα
- chemotaxis / migration of MDSC ([1]; Example 1, transwell, 10% human serum-containing media, 24 hrs (FIG. 14)): promote chemotaxis of MDSC; also recorded: promoted migration of MDSC
- migration of MDSC ([1]; Example 3, 8 μm transwell, 36 hours, recombinant cytokine in human serum-containing media (FIG. 27B)): chemo attractant for MDSC
- optimal concentration for MDSC migration ([1]; Example 3, transwell, 36 hours (FIG. 27B)): 1 pg/mL
- optimal dose for fracture healing ([2]; 20 μl in PBS at fracture site, histology day 14 (FIG. 18)): 50 ng/mL
- optimal dose range for fracture healing ([2]; 20 μl in PBS, 1 ng/ml equivalent to 1 ng/kg, histology day 14 (FIG. 18)): around 50 ng/kg
- healing of tibial fractures by CT scans ([2]; 28 days post injury, local administration at fracture site (TNFα 50 ng/kg and HMGB1 at time of fracture and 24 hr later) (FIG. 19, 30)): improved healing
- fracture healing ([2]; TNFα 5 ng/ml at fracture site (FIG. 18)): less pronounced effect
- fracture healing ([2]; TNFα 500 ng/ml (500 ng/kg) at fracture site, versus PBS vehicle (FIG. 18)): inhibitory
- fracture healing ([2]; TNFα 500 ng/ml (500 ng/kg) at fracture site, versus PBS vehicle (FIG. 18), listed as rhTNFα): inhibits fracture healing
- fracture healing compared to control C57BI/6 mice ([2]; exogenous addition at fracture site, histology day 14, log dose range 5-500 ng/ml (FIG. 18)): accelerated fracture healing
- decrease of osteoclast number [3]: > 90%
